Assay results as given in patent US20110077237A1, “KINASE INHIBITORS” (VERTEX PHARMACEUTICALS INCORPORATED, priority 2007, published 2011).

Assays:
Assay type in all cases: biochemical
PKC delta kinase = PKC delta kinase (Homo sapiens, UniProt Q05655); assay: PKC Delta coupled-enzyme kinase assay; settings: 46 nM PKC delta, 150 μM ATP, 30° C.; read-out: Ki PKC delta
Outline: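 Assay buffer was 100 mM HEPES pH 7.5, 10 mM MgCl2, 25 mM NaCl, 0.1 mM EDTA, 0.01% Brij. Enzyme buffer was equilibrated with compound in DMSO for 10 min at 30 °C. Ki values were derived by non-linear regression of initial rate data.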

PKC theta = PKC theta (Homo sapiens, UniProt Q04759); assay: PKC Theta I coupled-enzyme (NADH absorbance) kinase assay; settings: 18 nM PKC theta, 240 μM ATP, 30° C., absorbance at 340 nm
Protocol: An assay buffer solution was prepared which consisted of 100 mM HEPES (pH 7.5), 10 mM MgCl2, 25 mM NaCl, 0.1 mM EDTA and 0.01% Brij. […] To 60 μL of this enzyme buffer, in a 384 well plate, was added 2 μL of VRT stock solution in DMSO. The mixture was allowed to equilibrate for 10 mins at 30° C. […] Ki values were calculated from initial rate data by non-linear regression using the Prism software package (Prism 4.0a, Graphpad Software, San Diego, Calif.).

PKC alpha kinase = PKC alpha kinase (Homo sapiens, UniProt P17252); assay: PKC Alpha coupled-enzyme kinase assay; settings: 4.5 nM PKC alpha, 130 μM ATP, 30° C.
Protocol: An assay buffer solution was prepared which consisted of 100 mM HEPES (pH 7.5), 10 mM MgCl2, 25 mM NaCl, 0.1 mM EDTA, 100 μM CaCl2 and 0.01% Brij. […] To 16 μL of this enzyme buffer, in a 384 well plate, was added 1 μL of VRT stock solution in DMSO. The mixture was allowed to equilibrate for 10 mins at 30° C. The enzyme reaction was initiated by the addition of 16 μL stock ATP solution prepared in assay buffer to a final assay concentration of 130 μM. Initial rate data was determined from the rate of change of absorbance at 340 nm (corresponding to stoichiometric consumption of NADH) using a Molecular Devices Spectramax plate reader (Sunnyvale, Calif.) over 15 mins at 30° C. For each Ki determination 12 data points covering the VRT concentration range of 0-20 μM were obtained in duplicate (DMSO stocks were prepared from an initial 10 mM VRT stock with subsequent 1:2 serial dilutions). Ki values were calculated from initial rate data by non-linear regression using the Prism software package (Prism 4.0a, Graphpad Software, San Diego, Calif.).

Sequence of PKC theta (Q04759 whole entry): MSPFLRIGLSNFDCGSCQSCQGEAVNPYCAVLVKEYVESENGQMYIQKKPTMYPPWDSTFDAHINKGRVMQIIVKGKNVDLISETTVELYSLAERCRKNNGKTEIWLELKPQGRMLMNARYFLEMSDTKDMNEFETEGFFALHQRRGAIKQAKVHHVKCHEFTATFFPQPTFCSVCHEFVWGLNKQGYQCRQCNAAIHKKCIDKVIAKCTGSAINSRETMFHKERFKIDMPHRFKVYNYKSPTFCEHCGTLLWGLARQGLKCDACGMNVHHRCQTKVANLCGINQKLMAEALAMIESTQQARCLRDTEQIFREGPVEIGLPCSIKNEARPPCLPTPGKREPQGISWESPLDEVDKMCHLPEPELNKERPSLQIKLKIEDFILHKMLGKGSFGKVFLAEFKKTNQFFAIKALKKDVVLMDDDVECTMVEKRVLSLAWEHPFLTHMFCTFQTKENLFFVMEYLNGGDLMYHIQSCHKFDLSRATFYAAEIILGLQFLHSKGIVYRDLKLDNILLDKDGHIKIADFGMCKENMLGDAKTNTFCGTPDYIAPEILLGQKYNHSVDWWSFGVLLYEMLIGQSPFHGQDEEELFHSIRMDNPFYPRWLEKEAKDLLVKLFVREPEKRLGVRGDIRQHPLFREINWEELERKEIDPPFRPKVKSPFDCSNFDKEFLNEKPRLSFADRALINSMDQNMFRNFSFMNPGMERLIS
Sequence of PKC delta kinase (Q05655 whole entry): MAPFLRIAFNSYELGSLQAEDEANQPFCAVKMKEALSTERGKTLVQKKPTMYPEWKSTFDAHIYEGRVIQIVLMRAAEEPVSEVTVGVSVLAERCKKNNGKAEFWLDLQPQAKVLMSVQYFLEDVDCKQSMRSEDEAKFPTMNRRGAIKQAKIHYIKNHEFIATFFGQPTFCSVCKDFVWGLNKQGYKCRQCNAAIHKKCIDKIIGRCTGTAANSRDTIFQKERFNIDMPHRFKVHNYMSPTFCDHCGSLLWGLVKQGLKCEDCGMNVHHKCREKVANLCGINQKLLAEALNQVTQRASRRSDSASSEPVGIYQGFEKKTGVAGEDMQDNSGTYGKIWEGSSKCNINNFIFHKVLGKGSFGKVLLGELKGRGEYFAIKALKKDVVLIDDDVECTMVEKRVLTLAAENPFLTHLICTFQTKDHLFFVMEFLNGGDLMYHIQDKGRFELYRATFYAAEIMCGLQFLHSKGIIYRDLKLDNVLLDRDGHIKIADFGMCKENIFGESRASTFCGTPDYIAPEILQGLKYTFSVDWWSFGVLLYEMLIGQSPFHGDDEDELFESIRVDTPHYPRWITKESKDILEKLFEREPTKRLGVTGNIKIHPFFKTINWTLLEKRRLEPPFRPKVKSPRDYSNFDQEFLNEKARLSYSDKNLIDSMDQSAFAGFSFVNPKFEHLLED

SMILES	Ki (PKC delta kinase) [nM]	Ki (PKC theta) [nM]	Ki (PKC alpha kinase) [nM]
COC(=O)N1CCCN(c2cccc(C(=O)c3cccnc3N)n2)CC1 [compound 9]	500 to 2800	500 to 2800	
CC(C)(O)C(=O)N1CCCN(c2cccc(C(=O)c3cccnc3N)n2)CC1 [compound 19]	> 2800	500 to 2800	
Nc1ncccc1C(=O)c1cccc(N2CCCN(C(=O)c3ccccc3)CC2)n1 [compound 32]	> 2800	500 to 2800	
Nc1ncccc1C(=O)c1cccc(N2CCCN(C(=O)CC3CCCCC3)CC2)n1 [compound 39]	> 2800	500 to 2800	
CC(C)(C)C(O)C(=O)N1CCCN(c2cccc(C(=O)c3cccnc3N)n2)CC1 (stereo not shown) [compound 41]	> 2800	500 to 2800	
Nc1ncccc1C(=O)c1ccn(C2CCNCC2)n1 [compound 184]	500 to 2800	500 to 2800	500 to 2800
Nc1ncccc1C(=O)c1ccn(C2CCCNCC2)n1 (stereo not shown) [compound 203]	500 to 2800	500 to 2800	500 to 2800
Nc1ncccc1C(=O)c1cccc(N2CCN[C@@H](Cc3ccccc3)C2)n1 [compound 215]		500 to 2800	
CN1CCN(c2cccc(C(=O)c3cccnc3N)n2)CC1 [compound 216]		500 to 2800	
Cc1cc(C(=O)c2cccnc2N)nn1C1CCCNCC1 (stereo not shown) [compound 217]	500 to 2800	500 to 2800	> 2800
CNc1cnc(N)c(C(=O)c2cccc(N3CCCNCC3)n2)c1 [compound 220]		500 to 2800	500 to 2800
Nc1ncccc1C(=O)c1cccc(N2CCN(C(=O)CC(F)(F)F)CC2)n1 [compound 224]		500 to 2800	
Cc1ccc(C(=O)c2cccnc2N)nc1N1CCCNCC1 [compound 229]		500 to 2800	
C[C@@H]1CNC[C@H](C)N1c1cccc(C(=O)c2cccnc2N)n1 [compound 234]		500 to 2800	
Cc1ccc(C(=O)c2cccnc2N)nc1N1CCNCC1 [compound 236]		500 to 2800	
Nc1ncccc1C(=O)c1ccc(Cl)c(N2CCCNCC2)n1 [compound 242]		500 to 2800	
Nc1ncccc1C(=O)c1cccc(N2CCN[C@H](Cc3ccccc3)C2)n1 [compound 250]		500 to 2800	
Nc1ncccc1C(=O)c1cccc(C2CCNCC2)n1 [compound 257]		500 to 2800	
Nc1ncc(-c2ccccc2O)cc1C(=O)c1cccc(N2CCNC(c3ccccc3)C2)n1 (stereo not shown) [compound 259]		500 to 2800	
Nc1ncc(-c2cccnc2)cc1C(=O)c1cccc(N2CCNC(c3ccccc3)C2)n1 (stereo not shown) [compound 275]		500 to 2800	
Nc1ncc(-c2ccccc2CO)cc1C(=O)c1cccc(N2CCNC(c3ccccc3)C2)n1 (stereo not shown) [compound 281]		500 to 2800	
Nc1ncccc1C(=O)c1cccc(N2CCNC(Cc3cnc[nH]3)C2)n1 (stereo not shown) [compound 304]	500 to 2800	500 to 2800	> 2800
Nc1ncccc1C(=O)c1cc(N2CCNCC2)ncc1F [compound 319]		500 to 2800	
Cc1cccc(C)c1C1CN(c2cccc(C(=O)c3cccnc3N)n2)CCN1 (stereo not shown) [compound 337]	> 2800	500 to 2800	500 to 2800
Nc1ncccc1C(=O)c1nc(N2CCNCC2)ccc1C1CC1 [compound 354]	500 to 2800	500 to 2800	> 2800
CC(C)(N)CNc1ccc(C(F)(F)F)c(C(=O)c2cccnc2N)n1 [compound 368]	500 to 2800	500 to 2800	500 to 2800

SMILES	Ki (PKC delta kinase) [nM]	Ki (PKC theta) [nM]	Ki (PKC alpha kinase) [nM]
Nc1ncccc1C(=O)c1nc(N2CCC(N)C2)ccc1C(F)(F)F (stereo not shown) [compound 369]	500 to 2800	500 to 2800	500 to 2800
CC(C)[C@H](CN)Nc1ccc(C(F)(F)F)c(C(=O)c2cccnc2N)n1 [compound 370]	500 to 2800	500 to 2800	500 to 2800
CNCCNc1ccc(C(F)(F)F)c(C(=O)c2cccnc2N)n1 [compound 373]	500 to 2800	500 to 2800	500 to 2800
NCCCCNc1ccc(C(F)(F)F)c(C(=O)c2cccnc2N)n1 [compound 374]	500 to 2800	500 to 2800	500 to 2800
Nc1ncccc1C(=O)c1nc(NC2CNC2)ccc1C(F)(F)F [compound 375]	500 to 2800	500 to 2800	500 to 2800
Nc1ncccc1C(=O)c1nc(NC2CCNC2)ccc1C(F)(F)F (stereo not shown) [compound 376]	500 to 2800	500 to 2800	500 to 2800
NCCOc1ccc(C(F)(F)F)c(C(=O)c2cccnc2N)n1 [compound 378]	500 to 2800	500 to 2800	500 to 2800
CNCCN(C)c1ccc(C(F)(F)F)c(C(=O)c2cccnc2N)n1 [compound 380]	500 to 2800	500 to 2800	500 to 2800
Nc1ncccc1C(=O)c1nc(NC2CCCNC2)ccc1C(F)(F)F (stereo not shown) [compound 381]	500 to 2800	500 to 2800	500 to 2800
Nc1ncccc1C(=O)c1nc(NCC2CCCCN2)ccc1C(F)(F)F (stereo not shown) [compound 382]	500 to 2800	500 to 2800	500 to 2800
NC(=O)CNc1ccc(C(F)(F)F)c(C(=O)c2cccnc2N)n1 [compound 386]	500 to 2800	500 to 2800	500 to 2800
Nc1ncccc1C(=O)c1nc(NC2CCCC(N)C2)ccc1C(F)(F)F (stereo not shown) [compound 389]	500 to 2800	500 to 2800	500 to 2800
Nc1ncccc1C(=O)c1cccc(Br)n1 [compound 390]	500 to 2800	500 to 2800	500 to 2800
Cc1cc(Nc2ccc(C(F)(F)F)c(C(=O)c3cccnc3N)n2)[nH]n1 [compound 393]	500 to 2800	500 to 2800	500 to 2800
Cc1cc(N)n(-c2ccc(C(F)(F)F)c(C(=O)c3cccnc3N)n2)n1 [compound 394]	500 to 2800	500 to 2800	500 to 2800
CCCNc1ccc(C(F)(F)F)c(C(=O)c2cccnc2N)n1 [compound 398]	500 to 2800	500 to 2800	500 to 2800
CC(C)C(CO)Nc1ccc(C(F)(F)F)c(C(=O)c2cccnc2N)n1 (stereo not shown) [compound 399]	500 to 2800	500 to 2800	500 to 2800
NCCCOc1ccc(C(F)(F)F)c(C(=O)c2cccnc2N)n1 [compound 405]	500 to 2800	500 to 2800	500 to 2800
CC(C)C[C@H]1CN(c2ccc(C#CC3CC3)c(C(=O)c3cccnc3N)n2)CCN1 [compound 407]	500 to 2800	500 to 2800	500 to 2800
Nc1ncccc1C(=O)c1nc(N2CCNC(c3ccccc3)C2)ccc1C#CC1CC1 (stereo not shown) [compound 408]	500 to 2800	500 to 2800	500 to 2800
Nc1ncccc1C(=O)c1nc(N2CCNCC2)ccc1C#CC1CC1 [compound 409]	500 to 2800	500 to 2800	500 to 2800
Nc1ncccc1C(=O)c1nc(NC2CCCCC2N)ccc1C(F)(F)F (stereo not shown) [compound 414]	500 to 2800	500 to 2800	500 to 2800
Nc1ncccc1C(=O)c1nc(N2CCNCC2)ccc1Cc1ccccc1 [compound 417]	500 to 2800	500 to 2800	500 to 2800
Nc1ncccc1C(=O)c1nc(NCCCO)ccc1C(F)(F)F [compound 419]	500 to 2800	500 to 2800	500 to 2800
CC(C)C[C@H]1CN(c2ccc(-c3cnn(C)c3)c(C(=O)c3cccnc3N)n2)CCN1 [compound 420]	500 to 2800	500 to 2800	500 to 2800
